Data: US20240254103A9, “NOVEL PYRIMIDINE DERIVATIVE, AND COMPOSITION FOR PREVENTING OR TREATING NEURODEGENERATIVE DISEASES AND CANCER, COMPRISING SAME” (WHAN IN PHARMACEUTICAL CO., LTD., priority 2020, published 2024)

Tests used:
[1] = Blood-brain barrier (BBB) penetration, LC-MS/MS of plasma and brain tissue after oral administration; assay type: in vivo; conditions: oral 10 mg/kg, three hours after administration
Procedure: Test substances were each orally administered at a dose of 10 mg/kg. Three hours later, the animals were sacrificed and blood samples were immediately taken from the heart and centrifuged to obtain plasma samples. In order to remove the blood remaining in the body, 20 ml of saline containing 10 U/ml heparin were perfused through the heart, after which the brain was excised. The brain was homogenized together with three volumes of a PBS buffer. For quantitative analysis in the prepared plasma and brain tissue, advantage was taken of LC-MS/MS (Agilent, Santa Clara, Calif., USA). Separation in LC was conducted with a mobile phase consisting of 80% of acetonitrile and 20% of water containing 0.1% formic acid. For each substance, the eluting buffer was run for a total of 3 minutes at a flow rate of 0.3 ml/min. Each substance was quantitated using a multiple reaction monitoring method (for comparative compounds 4 and 5, the oral Parkinson's disease drugs DNL-151 and DNL-201 were used as LRRK2 protein inhibitors, respectively).

mutant LRRK2 (G2019S) = biological target: T1, mutant LRRK2 (G2019S) (Homo sapiens, UniProt Q5S007, G2019S); assay: Inhibitory activity against LRRK2: competition binding to ligand-affinity beads, DNA-tagged kinase quantitated by qPCR; conditions: 100 nM compound; % of ctrl; read-out: Remaining kinase activity(%) at 100 nM LRRK2(G2019Smutant)
T1 construct: DNA tag for qPCR detection (not a peptide; the protein part that carries it is not described); made in house; host or cells: HEK 293 cells (the same paragraph also describes T7 phage grown in E. coli BL21)
In short: (§1)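 Human LRRK2 H970–E2527, wild type or G2019S, was expressed as DNA-tagged kinase (T7 phage in E. coli or HEK293) and competed for 1 h against a biotinylated ligand on streptavidin beads. Bound kinase was eluted with 0.5 µM free ligand and quantified by qPCR. Values are % of control at 100 nM (both forms) and at 10 and 50 nM (wild type).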

wild-type LRRK2 = biological target: T2, wild-type LRRK2 (Homo sapiens, UniProt Q5S007); assay: as above; conditions: % of ctrl; for remaining binding at 0.1 µM: 100 nM compound, read-out: Remaining kinase activity(%) at 100 nM LRRK2(WT)
T2 construct: DNA tag for qPCR detection (not a peptide; the protein part that carries it is not described); made in house; host or cells: HEK 293 cells (the same paragraph also describes T7 phage grown in E. coli BL21)
In short: as §1

T2 sequence (Q5S007 970-2527): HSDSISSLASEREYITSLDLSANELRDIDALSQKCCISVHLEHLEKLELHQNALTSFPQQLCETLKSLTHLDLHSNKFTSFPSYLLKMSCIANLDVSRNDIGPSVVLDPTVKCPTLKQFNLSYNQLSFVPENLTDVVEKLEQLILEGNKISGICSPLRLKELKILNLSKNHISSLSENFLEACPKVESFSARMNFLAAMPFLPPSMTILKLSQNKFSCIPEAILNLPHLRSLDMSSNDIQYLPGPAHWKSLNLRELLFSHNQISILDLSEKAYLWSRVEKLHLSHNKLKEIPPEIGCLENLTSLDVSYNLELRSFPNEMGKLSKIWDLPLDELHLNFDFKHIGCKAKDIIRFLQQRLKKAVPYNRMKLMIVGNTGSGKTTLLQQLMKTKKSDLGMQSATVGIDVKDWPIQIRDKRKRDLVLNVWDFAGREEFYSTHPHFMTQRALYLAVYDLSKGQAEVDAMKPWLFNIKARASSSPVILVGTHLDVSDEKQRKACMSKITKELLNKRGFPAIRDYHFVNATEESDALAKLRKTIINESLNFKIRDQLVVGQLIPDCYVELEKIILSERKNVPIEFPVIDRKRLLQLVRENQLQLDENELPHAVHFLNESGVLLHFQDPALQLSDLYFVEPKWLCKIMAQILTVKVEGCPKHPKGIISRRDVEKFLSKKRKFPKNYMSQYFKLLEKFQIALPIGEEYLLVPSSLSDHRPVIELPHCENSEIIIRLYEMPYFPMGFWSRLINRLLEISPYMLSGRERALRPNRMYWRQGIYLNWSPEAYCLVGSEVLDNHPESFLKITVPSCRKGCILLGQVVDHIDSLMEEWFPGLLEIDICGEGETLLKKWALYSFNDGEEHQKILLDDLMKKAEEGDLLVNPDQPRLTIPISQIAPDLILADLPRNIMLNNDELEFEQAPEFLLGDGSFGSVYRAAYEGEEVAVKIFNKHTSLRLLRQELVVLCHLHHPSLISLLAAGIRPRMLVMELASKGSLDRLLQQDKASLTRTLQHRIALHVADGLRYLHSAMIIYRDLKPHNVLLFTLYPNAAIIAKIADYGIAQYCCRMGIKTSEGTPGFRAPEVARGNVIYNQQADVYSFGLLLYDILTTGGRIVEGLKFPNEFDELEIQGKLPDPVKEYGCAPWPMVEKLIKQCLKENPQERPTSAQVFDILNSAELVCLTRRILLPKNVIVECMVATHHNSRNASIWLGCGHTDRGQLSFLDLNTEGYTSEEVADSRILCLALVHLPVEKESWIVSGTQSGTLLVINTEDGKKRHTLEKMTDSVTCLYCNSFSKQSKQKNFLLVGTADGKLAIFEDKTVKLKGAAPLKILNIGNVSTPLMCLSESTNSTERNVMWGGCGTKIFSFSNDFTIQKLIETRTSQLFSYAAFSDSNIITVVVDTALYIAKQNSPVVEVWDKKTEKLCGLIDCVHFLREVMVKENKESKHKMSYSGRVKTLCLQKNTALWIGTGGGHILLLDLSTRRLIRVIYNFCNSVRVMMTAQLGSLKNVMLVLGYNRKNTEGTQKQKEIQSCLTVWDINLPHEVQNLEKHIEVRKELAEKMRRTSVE
T1 sequence (Q5S007 970-2527 G2019S): as the sequence (Q5S007 970-2527) above, with G1050S counted along it

Question: With `COc1cc(C(=O)N2CCOCC2)ccc1Nc1ncc(Cl)c(-c2cnn(C(C)C)c2)n1` [Compound 37, (4-((5-chloro-4-(1-isopropyl-1H-pyrazol-4-yl)pyrimidin-2-yl)amino)-3-methoxyphenyl)(morpholino)methanone] as the compound, how does the “effective concentration in the brain tissue, fold higher compared to comparative compound-4 (DNL-151)” value [1] read?
Answer: The value was 1.64 fold.

Question: What about the “effective concentration in the brain tissue, fold higher compared to comparative compound-5 (DNL-201)” value [1] of the same compound?
Answer: Its value is 2.77 fold.

Question: What about the remaining binding at 0.1 µM (mutant LRRK2 (G2019S)) of the same compound?
Answer: The remaining binding at 0.1 µM was less than 10%.

Question: And the remaining binding at 0.01 µM (wild-type LRRK2; 10 nM compound, read-out: LRRK2(WT) Remaining kinase activity(%) at 10 nM)?
Answer: The remaining binding at 0.01 µM was less than 50%.

Question: And the remaining binding at 0.05 µM (wild-type LRRK2; 50 nM compound, read-out: LRRK2(WT) Remaining kinase activity(%) at 50 nM)?
Answer: The remaining binding at 0.05 µM was less than 30%.

Question: What about the remaining binding at 0.1 µM (wild-type LRRK2) of the same compound?
Answer: The remaining binding at 0.1 µM was less than 10%.

Question: For `CCCn1cc(-c2nc(Nc3ccc(C(=O)N4CCOCC4)cc3OC)ncc2Cl)cn1` [Compound 57, (4-((5-chloro-4-(1-propyl-1H-pyrazol-4-yl)pyrimidin-2-yl)amino)-3-methoxyphenyl)(morpholino)methanone], which remaining binding at 0.1 µM (mutant LRRK2 (G2019S)) is on record?
Answer: Its remaining binding at 0.1 µM is less than 10%.

Question: What about the remaining binding at 0.1 µM (wild-type LRRK2) of the same compound?
Answer: Its remaining binding at 0.1 µM is less than 10%.

Question: What does the source list for `COc1cc(C(=O)N2CCOCC2)ccc1Nc1ncc(Cl)c(-c2cnn(C3CC3)c2)n1` [Compound 58, (4-((5-chloro-4-(1-cyclopropyl-1H-pyrazol-4-yl)pyrimidin-2-yl)amino)-3-methoxyphenyl)(morpholino)methanone]?
Answer: remaining binding at 0.1 µM (mutant LRRK2 (G2019S)): < 10%; remaining binding at 0.1 µM (wild-type LRRK2): < 30%

Question: What does the source list for `COc1cc(C(=O)N2CCOCC2)ccc1Nc1ncc(Cl)c(-c2cnn(C(C)(C)C)c2)n1` [Compound 59, (4-((4-(1-(tert-butyl)-1H-pyrazol-4-yl)-5-chloropyrimidin-2-yl)amino)-3-methoxyphenyl)(morpholino)methanone]?
Answer: remaining binding at 0.1 µM (mutant LRRK2 (G2019S)): < 10%; remaining binding at 0.1 µM (wild-type LRRK2): < 10%
